The values below come from ChEMBL document CHEMBL5321285 (J Med Chem, 2023).

The target in data set [1] is Sigma non-opioid intracellular receptor 1 (Cavia porcellus, UniProt Q60492).
Description: Displacement of [3H](+)-pentazocine from sigma 1 receptor in guinea pig brain membranes assessed as inhibition constant incubated for 120 mins in presence of haloperidol
Data set [2] has as its target T1, Sigma intracellular receptor 2 (Rattus norvegicus, UniProt Q5U3Y7).
T1 sequence (Q5U3Y7 whole entry): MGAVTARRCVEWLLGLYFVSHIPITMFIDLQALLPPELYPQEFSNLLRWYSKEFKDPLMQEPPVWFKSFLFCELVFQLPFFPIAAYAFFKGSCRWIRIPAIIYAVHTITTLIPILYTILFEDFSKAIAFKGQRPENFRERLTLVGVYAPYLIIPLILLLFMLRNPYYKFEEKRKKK
Description: Displacement of [3H]di-o-tolylguanidine from rat liver membrane sigma 2 receptor assessed as inhibition constant in presence of haloperidol. It is filed as cell membranes. Background: Loss of bound radioactivity is the signal in a displacement assay; it reports binding, not function.

The target of data set [3] is Voltage-gated inwardly rectifying potassium channel KCNH2 (Homo sapiens, UniProt Q12809). Description: Inhibition of hERG expressed in CHO cells at holding potential of -80 mV measured for 15 seconds by whole cell patch clamp assay. It is filed as toxicity, cell-based. A general note: hERG is a cardiac potassium channel; its block is linked to QT prolongation.
A short description of data set [4]: Drug concentration in Wistar rat plasma at 10 mg/kg, po measured for 10 mins by UPLC-MS/MS analysis. The data set is classed as ADME, organism-based.
Data set [5] can be described thus: Lipophilicity, logD of the compound. The data set is classed as physicochemical. The following applies: octanol/water.
The nature of data set [6]: Ratio AUC in Wistar rat brain to plasma at 10 mg/kg, po measured for 10 mins by UPLC-MS/MS analysis. The following applies: brain and plasma, read-out: Ratio AUC. It is filed as ADME, organism-based.
The nature of data set [7]: Clearance in Wistar rat at 1 mg/kg, iv by UPLC-MS/MS analysis. The data set is classed as ADME, organism-based. The conditions noted are these: in vivo.
For data set [8], the target named is Sigma intracellular receptor 2 (Homo sapiens, UniProt Q5BJF2). Description: Displacement of [3H]-1,3-di-O-tolylguanidine from human sigma 2 receptor/TMEM97 transfected in sigma 1 receptor knockout HEK293 cell membranes assessed as inhibition constant measured after 120 mins by microbeta scintillation counting analysis. On the set-up: species or system Cell membrane.

The nature of data set [9]: Apparent permeability across apical to basolateral side in human Caco-2 cells incubated for 2 hrs by UPLC-MS/MS analysis. It is filed as ADME, cell-based. In general terms: Passage across Caco-2 layers is used to estimate intestinal permeability.
Data set [10] can be described thus: Metabolic stability in rat liver microsome assessed as intrinsic clearance incubated upto 60 mins in presence of NADPH regenerating system by UPLC-MS/MS analysis. The data set is classed as ADME. The conditions noted are these: liver microsomes, read-out: CLH.
The target of another data set is T2, Cytochrome P450 1A2 (Homo sapiens, UniProt P05177).
T2 sequence (P05177 whole entry): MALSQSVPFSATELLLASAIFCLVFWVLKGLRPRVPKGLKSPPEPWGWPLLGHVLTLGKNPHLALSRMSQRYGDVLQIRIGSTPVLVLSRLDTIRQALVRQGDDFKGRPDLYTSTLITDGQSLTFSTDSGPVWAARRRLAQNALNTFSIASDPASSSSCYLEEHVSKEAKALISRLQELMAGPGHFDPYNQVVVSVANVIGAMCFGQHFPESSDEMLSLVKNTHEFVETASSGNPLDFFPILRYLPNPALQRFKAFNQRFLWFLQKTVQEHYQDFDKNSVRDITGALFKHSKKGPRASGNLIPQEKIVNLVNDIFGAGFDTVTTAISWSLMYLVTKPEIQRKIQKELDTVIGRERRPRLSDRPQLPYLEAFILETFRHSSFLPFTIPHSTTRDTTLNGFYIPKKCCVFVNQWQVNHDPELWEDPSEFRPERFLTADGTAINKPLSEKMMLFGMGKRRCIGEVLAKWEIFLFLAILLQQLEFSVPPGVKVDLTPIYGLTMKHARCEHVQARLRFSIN
Description: Inhibition of CYP1A2 in human liver microsomes using phenacetin as substrate incubated for 20 mins by UPLC-MS/MS analysis. The data set is classed as ADME, Microsome.

A further data set is filed under the species Homo sapiens. In words: Selectivity ratio of Ki for displacement of [3H]-(+)-pentazocine from human sigma1 receptor transfected in HEK293 cell membranes assessed as inhibition constant to Ki for displacement of [3H]-1,3-di-O-tolylguanidine from human sigma 2 receptor/TMEM97 transfected in sigma 1 receptor knockout HEK293 cell membranes assessed as inhibition constant.

Data set [11] in a line: Cmax in Wistar rat at 1 mg/kg, iv by UPLC-MS/MS analysis. It is filed as ADME, organism-based. On the set-up: dose 1 mg/kg, route iv. The conditions noted are these: in vivo.
The subject of the next data set is Neuron. In words: Neuroprotective activity against MPP+ induced rat neurons at 10 uM pretreated with compond for 1 hr followed by MPP+ addition and measured after 48 hrs. The following applies: time 49.0 hrs. The data set is classed as functional, cell-based.
Data set [12] is described as follows: Oral bioavailability in Wistar rat at 10 mg/kg by UPLC-MS/MS analysis. The following applies: in vivo. The data set is classed as ADME, organism-based.
Another data set deals with Cytochrome P450 3A4 (Homo sapiens, UniProt P08684). In words: Inhibition of CYP3A4 in human liver microsomes using testosterone as substrate incubated for 20 mins by UPLC-MS/MS analysis. It is filed as ADME, Microsome.
The target of data set [13] is Sigma non-opioid intracellular receptor 1 (Homo sapiens, UniProt Q99720). In words: Displacement of [3H]-(+)-pentazocine from human sigma1 receptor transfected in HEK293 cell membranes assessed as inhibition constant incubated for 120 mins in presence of haloperidol by microbeta scintillation counter analysis. On the set-up: species or system Cell membrane.
Data set [14] is described as follows: Metabolic stability in rat liver microsome assessed as parent compound remaining at 1 uM measured after 1 hr in presence of NADPH regenerating system by UPLC-MS/MS analysis. It is filed as ADME. The following applies: liver microsomes, read-out: Stability.
Data set [15] in a line: Tmax in Wistar rat at 10 mg/kg, po by UPLC-MS/MS analysis. It is filed as ADME, organism-based. The following applies: in vivo.
Data set [16] in a line: Metabolic stability in mouse liver microsome assessed as parent compound remaining at 1 uM measured after 1 hr in presence of NADPH regenerating system by UPLC-MS/MS analysis. The following applies: liver microsomes, read-out: Stability. It is filed as ADME.
Data set [17] is described as follows: AUC in Wistar rat at 1 mg/kg, iv by UPLC-MS/MS analysis. The data set is classed as ADME, organism-based. On the set-up: dose 1 mg/kg, route iv. The conditions noted are these: in vivo.
The target in the next data set is Cytochrome P450 2C19 (Homo sapiens, UniProt P33261). In words: Inhibition of CYP2C19 in human liver microsomes using S mephenytoin as substrate incubated for 20 mins by UPLC-MS/MS analysis. It is filed as ADME, Microsome.
Data set [18] can be described thus: Lipophilicity, logP of compound. The conditions noted are these: octanol/water. The data set is classed as physicochemical.
Data set [19] is described as follows: Tmax in Wistar rat at 1 mg/kg, iv by UPLC-MS/MS analysis. It is filed as ADME, organism-based. The following applies: in vivo.
The nature of data set [20]: Metabolic stability in human liver microsome assessed as intrinsic clearance incubated upto 60 mins in presence of NADPH regenerating system by UPLC-MS/MS analysis. The data set is classed as ADME. The following applies: liver microsomes, read-out: CLH.
The nature of data set [21]: Metabolic stability in mouse liver microsome assessed as intrinsic clearance incubated upto 60 mins in presence of NADPH regenerating system by UPLC-MS/MS analysis. The data set is classed as ADME. The conditions noted are these: liver microsomes, read-out: CLH.
Data set [22] is described as follows: Volume of distribution at steady state in Wistar rat at 1 mg/kg, iv by UPLC-MS/MS analysis. It is filed as ADME, organism-based. The conditions noted are these: in vivo, read-out: Vdss.
Data set [23] is described as follows: Half life in Wistar rat at 1 mg/kg, iv by UPLC-MS/MS analysis. It is filed as ADME, organism-based. The following applies: in vivo.
Data set [24] can be described thus: Cmax in Wistar rat at 10 mg/kg, po by UPLC-MS/MS analysis. The data set is classed as ADME, organism-based. On the set-up: dose 10 mg/kg, route po. The conditions noted are these: in vivo.
Data set [25] is described as follows: Efflux ratio of apparent permeability across […] in human Caco-2 cells. The data set is classed as ADME, cell-based.
Data set [26] can be described thus: Dissociation constant, pKa of the compound. The data set is classed as physicochemical.
In a further data set the target is Cytochrome P450 2C9 (Homo sapiens, UniProt P11712). In words: Inhibition of CYP2C9 in human liver microsomes using tolbutamide as substrate incubated for 20 mins by UPLC-MS/MS analysis. The data set is classed as ADME, Microsome.
The next data set addresses Cytochrome P450 2D6 (Homo sapiens, UniProt P10635). In words: Inhibition of CYP2D6 in human liver microsomes using bufuralol as substrate incubated for 20 mins by UPLC-MS/MS analysis. It is filed as ADME, Microsome.
Data set [27] can be described thus: Metabolic stability in human liver microsome assessed as parent compound remaining at 1 uM measured after 1 hr in presence of NADPH regenerating system by UPLC-MS/MS analysis. The data set is classed as ADME. The following applies: liver microsomes, read-out: Stability.
Data set [28] is described as follows: AUC in Wistar rat at 10 mg/kg, po by UPLC-MS/MS analysis. It is filed as ADME, organism-based. On the set-up: dose 10 mg/kg, route po. The following applies: in vivo.
The nature of data set [29]: Solubility of the compound at pH 7.4. It is filed as physicochemical. The following applies: buffer.
The next data set deals with Rattus norvegicus. In words: Anti-alzheimer activity against amyloid beta peptide-induced cognitive impairment in Wistar rat model at 10 mg/kg, po measured for 10 days. The following applies: time 10.0 day. It is filed as functional, organism-based.
For data set [30], the target named is T1, Sigma intracellular receptor 2. Description: Displacement of [3H]di-o-tolylguanidine from rat liver membrane sigma 2 assessed as inhibition constant incubated for 120 mins. It is filed as cell membranes.
In data set [31] the target is Sigma non-opioid intracellular receptor 1 (Rattus norvegicus, UniProt Q9R0C9). Description: Displacement of [3H](+)-pentazocine from rat liver membranes sigma 1 receptor assessed as inhibition constant incubated for 120 mins. The data set is classed as cell membranes, Membrane.

Usually Ki stands for the dissociation constant of the complex between target and ligand, obtained from inhibition or displacement. Usually IC50 stands for the concentration that gives 50% inhibition. One may read the logD as lipophilicity at a set pH, counting ionised and neutral species. A higher logD goes with a more lipophilic compound. What is called clearance is the volume of plasma or blood freed of the substance per unit of time. A higher clearance goes with a high capacity for elimination. For orientation: Papp A→B means the apparent permeability from the apical to the basolateral side of a cell layer. What is called Cmax is the peak of the concentration-time curve. A word on the bioavailability: it is the share of a dose that reaches the circulation, judged against a reference dose that is usually intravenous. Usually Tmax stands for the time from dosing to the highest level. For orientation: AUC means concentration integrated over time. A higher AUC goes with high exposure. As a reminder, the logP is the decadic logarithm of the partition coefficient of the neutral form, usually between octanol and water. By half-life is commonly meant how long it takes for the measured level to halve. Read a low half-life as rapid decline. The pKa is the negative logarithm of the acid dissociation constant. A lower pKa goes with a stronger acid or weaker base. The term solubility denotes the dissolved amount per volume that the medium holds.

Values after ≈ are worked out from the molar mass of the structure shown. Active and inactive are the calls of the source. The calls are words filed in the database; no cut-off is given here.

Sequence of Cytochrome P450 3A4 (P08684 whole entry): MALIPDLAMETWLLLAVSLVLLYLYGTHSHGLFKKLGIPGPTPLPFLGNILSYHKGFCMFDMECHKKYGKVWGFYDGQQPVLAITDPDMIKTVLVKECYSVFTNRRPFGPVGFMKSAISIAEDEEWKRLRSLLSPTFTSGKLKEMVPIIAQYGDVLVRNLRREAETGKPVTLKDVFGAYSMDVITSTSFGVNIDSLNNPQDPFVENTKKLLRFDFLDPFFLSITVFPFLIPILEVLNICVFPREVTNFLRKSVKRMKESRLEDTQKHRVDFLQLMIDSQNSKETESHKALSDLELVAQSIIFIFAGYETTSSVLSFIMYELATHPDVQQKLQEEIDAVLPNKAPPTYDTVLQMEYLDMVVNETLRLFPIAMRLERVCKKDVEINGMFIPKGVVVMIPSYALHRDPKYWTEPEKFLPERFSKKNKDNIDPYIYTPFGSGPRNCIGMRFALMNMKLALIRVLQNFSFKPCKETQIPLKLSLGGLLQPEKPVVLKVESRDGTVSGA
Sequence of Cytochrome P450 2C9 (P11712 whole entry): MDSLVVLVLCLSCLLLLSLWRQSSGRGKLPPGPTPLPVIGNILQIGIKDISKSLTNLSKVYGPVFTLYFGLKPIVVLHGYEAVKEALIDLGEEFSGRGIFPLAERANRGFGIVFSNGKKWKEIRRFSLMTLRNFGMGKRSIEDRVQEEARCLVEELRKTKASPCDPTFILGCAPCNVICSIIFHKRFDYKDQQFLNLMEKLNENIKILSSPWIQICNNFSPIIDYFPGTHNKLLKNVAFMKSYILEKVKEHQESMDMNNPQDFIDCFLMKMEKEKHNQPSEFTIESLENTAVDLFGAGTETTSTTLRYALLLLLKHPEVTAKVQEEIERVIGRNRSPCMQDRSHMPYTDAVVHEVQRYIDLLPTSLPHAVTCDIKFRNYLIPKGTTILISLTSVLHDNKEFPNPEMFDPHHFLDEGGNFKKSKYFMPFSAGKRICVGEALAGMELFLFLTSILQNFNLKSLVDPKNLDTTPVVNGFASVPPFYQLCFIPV
Sequence of Cytochrome P450 2D6 (P10635 whole entry): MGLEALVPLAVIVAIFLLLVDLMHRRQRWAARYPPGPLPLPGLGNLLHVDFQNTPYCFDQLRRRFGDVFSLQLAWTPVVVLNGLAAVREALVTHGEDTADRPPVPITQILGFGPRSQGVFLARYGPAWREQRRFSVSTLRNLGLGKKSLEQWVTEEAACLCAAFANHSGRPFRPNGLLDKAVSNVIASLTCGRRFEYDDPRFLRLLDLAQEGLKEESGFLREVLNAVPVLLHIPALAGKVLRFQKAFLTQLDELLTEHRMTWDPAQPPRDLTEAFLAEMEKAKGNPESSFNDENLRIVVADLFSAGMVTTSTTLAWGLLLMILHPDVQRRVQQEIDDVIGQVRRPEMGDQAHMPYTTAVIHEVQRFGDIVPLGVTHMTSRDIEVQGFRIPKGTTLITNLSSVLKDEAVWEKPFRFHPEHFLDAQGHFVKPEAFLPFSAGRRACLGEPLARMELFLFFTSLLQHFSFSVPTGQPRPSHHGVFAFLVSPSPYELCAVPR
Sequence of Cytochrome P450 2C19 (P33261 whole entry): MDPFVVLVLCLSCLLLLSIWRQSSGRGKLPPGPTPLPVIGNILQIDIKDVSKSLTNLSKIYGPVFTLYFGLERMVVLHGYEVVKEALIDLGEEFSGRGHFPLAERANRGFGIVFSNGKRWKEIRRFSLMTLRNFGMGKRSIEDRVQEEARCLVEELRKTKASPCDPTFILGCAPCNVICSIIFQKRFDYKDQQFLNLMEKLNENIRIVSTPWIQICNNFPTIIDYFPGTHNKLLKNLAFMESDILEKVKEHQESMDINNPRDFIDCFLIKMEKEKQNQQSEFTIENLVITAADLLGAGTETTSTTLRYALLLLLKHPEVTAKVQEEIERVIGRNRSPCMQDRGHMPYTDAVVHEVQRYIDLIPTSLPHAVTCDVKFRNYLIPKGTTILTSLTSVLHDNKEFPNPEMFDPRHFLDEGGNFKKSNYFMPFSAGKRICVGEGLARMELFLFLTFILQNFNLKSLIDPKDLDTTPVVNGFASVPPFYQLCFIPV
Sequence of Sigma intracellular receptor 2 (Homo sapiens, UniProt Q5BJF2) (Q5BJF2 whole entry): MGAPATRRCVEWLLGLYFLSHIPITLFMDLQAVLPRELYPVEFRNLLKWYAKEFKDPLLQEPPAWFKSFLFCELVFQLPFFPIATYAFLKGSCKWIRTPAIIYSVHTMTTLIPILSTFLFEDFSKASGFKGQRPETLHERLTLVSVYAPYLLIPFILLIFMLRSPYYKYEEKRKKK
Sequence of Sigma non-opioid intracellular receptor 1 (Rattus norvegicus, UniProt Q9R0C9) (Q9R0C9 whole entry): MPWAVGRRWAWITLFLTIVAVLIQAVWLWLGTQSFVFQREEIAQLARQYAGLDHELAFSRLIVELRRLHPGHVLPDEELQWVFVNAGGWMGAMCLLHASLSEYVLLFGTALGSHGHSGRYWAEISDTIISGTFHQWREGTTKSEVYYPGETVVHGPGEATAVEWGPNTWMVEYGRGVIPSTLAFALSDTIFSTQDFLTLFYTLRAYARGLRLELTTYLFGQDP
Sequence of Sigma non-opioid intracellular receptor 1 (Cavia porcellus, UniProt Q60492) (Q60492 whole entry): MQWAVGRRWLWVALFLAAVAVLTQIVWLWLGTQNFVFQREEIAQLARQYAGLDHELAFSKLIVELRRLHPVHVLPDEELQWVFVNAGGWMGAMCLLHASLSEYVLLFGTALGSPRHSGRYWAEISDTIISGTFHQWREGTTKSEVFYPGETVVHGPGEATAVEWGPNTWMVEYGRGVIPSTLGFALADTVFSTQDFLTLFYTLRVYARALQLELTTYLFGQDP
Sequence of Sigma non-opioid intracellular receptor 1 (Homo sapiens, UniProt Q99720) (Q99720 whole entry): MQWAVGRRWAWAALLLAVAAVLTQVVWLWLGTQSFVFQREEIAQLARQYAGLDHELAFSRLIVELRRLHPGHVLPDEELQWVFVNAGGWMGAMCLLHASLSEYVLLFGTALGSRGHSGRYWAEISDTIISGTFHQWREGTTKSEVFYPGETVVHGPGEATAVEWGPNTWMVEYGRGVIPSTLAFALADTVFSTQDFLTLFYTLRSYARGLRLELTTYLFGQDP
Sequence of Voltage-gated inwardly rectifying potassium channel KCNH2 (Q12809 whole entry): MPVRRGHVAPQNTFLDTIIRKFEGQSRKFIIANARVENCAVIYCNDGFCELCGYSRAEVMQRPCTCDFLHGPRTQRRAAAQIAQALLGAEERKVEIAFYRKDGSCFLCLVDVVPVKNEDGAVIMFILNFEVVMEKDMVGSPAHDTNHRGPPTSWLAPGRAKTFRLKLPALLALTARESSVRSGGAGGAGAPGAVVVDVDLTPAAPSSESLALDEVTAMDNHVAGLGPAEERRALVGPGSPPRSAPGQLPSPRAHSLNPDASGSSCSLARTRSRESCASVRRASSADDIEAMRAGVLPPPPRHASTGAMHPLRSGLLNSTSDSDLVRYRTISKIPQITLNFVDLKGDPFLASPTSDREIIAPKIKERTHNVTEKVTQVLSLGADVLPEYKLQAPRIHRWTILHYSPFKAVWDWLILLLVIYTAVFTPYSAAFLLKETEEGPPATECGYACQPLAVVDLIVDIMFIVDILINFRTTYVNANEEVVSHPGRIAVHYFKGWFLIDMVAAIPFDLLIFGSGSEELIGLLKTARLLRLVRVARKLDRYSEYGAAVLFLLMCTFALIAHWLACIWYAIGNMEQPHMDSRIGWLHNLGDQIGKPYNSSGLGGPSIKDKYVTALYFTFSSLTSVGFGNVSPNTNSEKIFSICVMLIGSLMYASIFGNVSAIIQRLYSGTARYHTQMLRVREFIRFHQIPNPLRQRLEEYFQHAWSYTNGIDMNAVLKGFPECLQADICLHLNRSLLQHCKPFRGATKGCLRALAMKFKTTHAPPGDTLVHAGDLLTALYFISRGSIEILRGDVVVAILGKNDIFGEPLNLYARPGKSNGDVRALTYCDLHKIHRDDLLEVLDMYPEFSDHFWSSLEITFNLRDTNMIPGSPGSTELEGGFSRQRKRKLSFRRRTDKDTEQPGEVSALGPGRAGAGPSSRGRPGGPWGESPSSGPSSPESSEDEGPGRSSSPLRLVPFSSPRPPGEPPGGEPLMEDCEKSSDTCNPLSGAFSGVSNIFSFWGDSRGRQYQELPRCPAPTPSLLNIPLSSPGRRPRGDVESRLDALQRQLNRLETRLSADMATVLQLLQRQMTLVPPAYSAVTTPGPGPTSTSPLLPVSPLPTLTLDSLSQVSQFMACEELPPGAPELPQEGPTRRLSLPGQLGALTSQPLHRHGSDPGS

For `CN1CC[C@]2(c3cccc(O)c3)CC(=O)/C(=C/c3ccc(Cl)c(Cl)c3)[C@H]1C2`, the Ki in data set [1] is 7.44 µM; in data set [2], 13.4 nM.

Consider `CCc1ncc(-c2cc(C)no2)c(C2CCN(CC(=O)N3CCOCC3)CC2)n1`, for which the IC50 in data set [3] was over 10 µM; against Cytochrome P450 1A2, over 900 µM; on Cytochrome P450 3A4, over 900 µM; on Cytochrome P450 2C19, over 900 µM; on Cytochrome P450 2C9, 600 µM; against Cytochrome P450 2D6, 133 µM. Also, the concentration at 10 min in [4] was 250 ng/g. Further, in data set [5], the logD was 1.4. In addition, the Kp at 10 min in [6] was 0.41. The compound also showed a clearance in [7] of 28.3 mL/min/kg. Moreover, the Ki in data set [8] worked out at 13 nM; in [13], 1780 nM. Further, in data set [9], the apical-to-basolateral permeability (Papp A→B) at 2 h came out at 17.7 ×10⁻⁶ cm/s. Also, the values for the microsomal CLint in data set [10], in data set [20] and in data set [21] were 1.5 µL/min/mg, 1.6 µL/min/mg and 2.8 µL/min/mg, respectively. For the same compound, the Ratio Ki in the data set listed under Homo sapiens is 137. Moreover, the Cmax is 2020 ng/mL in [11] and 900 ng/mL in data set [24]. Also, the result in the data set on Neuron and in the data set with Rattus norvegicus was Active. The same compound returned a bioavailability in data set [12] of 51%. Further, the remaining at 1 h, 1 µM in data set [14] was determined as 95%; in [16], 93%; in [27], 93%. Also, the time of peak concentration (Tmax) in [15] turned out to be 48 min; in data set [19], 18 min. Moreover, the exposure (AUC) in data set [17] stood at 593 ng·h/mL; in [28] it was 3000 ng·h/mL. In data set [18], this compound returned a logP of 1.7. Besides, in data set [22], the Vd was determined as 0.8 L/kg. Also, the half-life in data set [23] was 60 min. Moreover, in data set [25], the Ratio stood at 1.2. The compound also displayed a pKa in [26] of 7.4. In addition, the concentration in solution in [29] (solubility) was 7280 µg/mL (≈ 18.2 mM).

As to `CC(=O)c1ccc2c(c1)oc(=O)n2CCCCN1CCN(c2ccc(F)cc2N)CC1`, the Ki stood at 3.5 nM in data set [30] and 87 nM in [31].
